Assay results as given in US20260315434A1, “USE OF GUAIACOL SESQUITERPENE LACTONE DERIVATIVES” (NANJING UNIVERSITY OF CHINESE MEDICINE, priority 2023, published 2026).

Tested on: T cells / MDSCs
Test: Promotion of T cell proliferation in a co-culture model of MDSCs and T cells
Type: cell-based, mouse
Conditions: Mus musculus, T-cell, 12 h, read-out: T-cell proliferation rate (%), 1 μM, MDSCs treated 12 hours, co-culture of MDSCs and T cells, compared to the control group
Method: Under sterile conditions, the tibia was removed, both ends of the bone were cut, and bone marrow was repeatedly flushed into a 15 mL centrifuge tube using a 1 mL syringe filled with culture medium. Centrifuge at 1600 rpm for 5 min to collect bone marrow cells. […] The spleen cell suspension was then transferred into a 15 mL centrifuge tube. Centrifuge at 1600 rpm for 5 min to collect T cells. Wash twice with 1×PBS. Resuspend the centrifuged T cells in 1 mL PBS and add 1 mL of 10 μM CFDA-SE solution. Incubate at room temperature for 8 min. […] After drug administration, collect MDSC cells into centrifuge tubes. Centrifuge at 1600 rpm for 5 min, remove supernatant, resuspend in 1 mL fresh medium, and plate. Add 1 mL stimulated activated T cells (1:1 ratio) for 48 h co-culture. After incubation, collect cells into centrifuge tubes, wash twice with PBS, and incubate with Fc antibody at room temperature in the dark for 10 min. Add CD3-labeled flow cytometry antibody and incubate at 4° C. in the dark for 30 min. After incubation, wash cells with PBS, resuspend in 300 μL PBS, and analyze by flow cytometry.

SMILES | activation at 1 µM
C=C1C(=O)O[C@H]2[C@H]1CCC(C)=C1CC[C@@](C)(OC(=O)NC)[C@@H]12 [Compound 64] | > 40%
C=C1C(=O)O[C@H]2[C@H]1CCC(C)=C1CC[C@@](C)(OC(=O)NCC)[C@@H]12 [Compound 65] | 0 to 20%
C=C1C(=O)O[C@H]2[C@H]1CCC(C)=C1CC[C@@](C)(OC(=O)NCCC)[C@@H]12 [Compound 66] | 0 to 20%
C=C1C(=O)O[C@H]2[C@H]1CCC(C)=C1CC[C@@](C)(OC(=O)NCCCC)[C@@H]12 [Compound 67] | 20 to 40%
C=C1C(=O)O[C@H]2[C@H]1CCC(C)=C1CC[C@@](C)(OC(=O)NC(C)C)[C@@H]12 [Compound 68] | 0 to 20%
C=C1C(=O)O[C@H]2[C@H]1CCC(C)=C1CC[C@@](C)(OC(=O)NC(CC)CC)[C@@H]12 [Compound 69] | 20 to 40%
C=C1C(=O)O[C@H]2[C@H]1CCC(C)=C1CC[C@@](C)(OC(=O)NC3CC3)[C@@H]12 [Compound 70] | 0 to 20%
C=C1C(=O)O[C@H]2[C@H]1CCC(C)=C1CC[C@@](C)(OC(=O)NCCO)[C@@H]12 [Compound 71] | > 40%
C=C1C(=O)O[C@H]2[C@H]1CCC(C)=C1CC[C@@](C)(OC(=O)NCCCO)[C@@H]12 [Compound 72] | 20 to 40%
C=C1C(=O)O[C@H]2[C@H]1CCC(C)=C1CC[C@@](C)(OC(=O)NCCCCCO)[C@@H]12 [Compound 73] | 20 to 40%
C=C1C(=O)O[C@H]2[C@H]1CCC(C)=C1CC[C@@](C)(OC(=O)NCCOC)[C@@H]12 [Compound 74] | > 40%
C=C1C(=O)O[C@H]2[C@H]1CCC(C)=C1CC[C@@](C)(OC(=O)NCCCOC)[C@@H]12 [Compound 75] | 20 to 40%
C=C1C(=O)O[C@H]2[C@H]1CCC(C)=C1CC[C@@](C)(OC(=O)NCCOCCO)[C@@H]12 [Compound 76] | 20 to 40%
C=C1C(=O)O[C@H]2[C@H]1CCC(C)=C1CC[C@@](C)(OC(=O)NCCN(C)C)[C@@H]12 [Compound 77] | 0 to 20%
C=C1C(=O)O[C@H]2[C@H]1CCC(C)=C1CC[C@@](C)(OC(=O)NCc3ccccc3)[C@@H]12 [Compound 79] | 20 to 40%
